According to patent US6113896A, “Pharmaceutical compositions containing ecotin and homologs thereof” (priority 1994, dated 2000):

Columns and labels:
[1] = test system: FXa; assay: Ecotin·FXa dissociation rate constant (HLE trap); type: biochemical, human; settings: calculated from (Ki)·(kon)
Procedure: Determination of FXa dissociation rate constant The dissociation rate constant of the ecotin.cndot.FXa complex was measured using HLE to trap the free ecotin released from the complex. FXa (10 μM) was incubated for 1 h in TNCT buffer in the presence and absence of ecotin (12.5 μM) and diluted 1000-fold into TNCT buffer with and without HLE (500 nM). Aliquots (180 μl ) were removed at various times and initial rates of free FXa were measured at 405 nm with 20 μl of 5 mM Spectrozyme fXa. The product curve (free FXa versus time) was fit to equation 6; the value for koff was determined by nonlinear regression analysis.
To measure the dissociation rate constant of ecotin from FXa, the complex was diluted 1000-fold into buffer containing a 50-fold excess of HLE to trap the free ecotin and prevent reassociation. In the absence of HLE, reassociation of ecotin with FXa was so rapid that free FXa was barely detectible (FIG. 4B). Progress of dissociation was monitored as the increase in hydrolysis rate of Spectrozyme fXa resulting from the increasing free FXa with time. Because HLE prevented reassociation the rate of dissociation of the E·I complex is given by equation (5): [formula] which upon integration gives equation (6): […]
where [E] is the free [FXa] at any time t, [E.cndot.I]0 is the concentration of the complex at time zero, and koff is the first order dissociation rate constant. The time dependent E·I complex dissociation curve fit to equation (6) by nonlinear regression analysis is shown in FIG. 4B; the dissociation rate constant for ecotin tested is shown above in Table I.

[2] = test system: human FXa; assay: Equilibrium inhibition constant with Factor Xa (tight-binding analysis); type: biochemical; settings: compared with wild type
Procedure: Determination of Equilibrium Inhibition Constants Apparent Ki values (Ki *) for the inhibition of the enzymes tested by ecotin and mutants were measured as follows. All reactions were performed at 25° C. Stock solutions of trypsin were quantitated by active site burst titration with MUGB as previously described (Jameson, G. W. et al., Biochem. J. 131:107-117 [1973]) using a Fluoroskan II plate reader at excitation wavelength of 355 nm and emission wavelength of 460 nm. Data was collected on a Macintosh SE20 using either Delta Soft II Fl v3.31 software (BioMetallics). Active site titrated trypsin was then used to quantitate ecotin active sites using BAPA as the substrate; a stoichiometry of 1:1 was assumed (Chung, C. H. et al., supra). Factor Xa, Factor XIIa, plasma kallikrein, or HLE were then quantitated by active site titration using ecotin as a standard, again assuming 1:1 stoichiometry. In addition, the concentration of HLE was quantitated by methods previously described using a calibrated stock of α1 -proteinase inhibitor to titrate the HLE active sites (Beatty, K. et al., J. Biol. Chem. 255:3931-3934 [1980]); the same HLE active site concentration was determined using both ecotin and α1 -proteinase inhibitor. The substate for FXa was Spectrozyme fXa (0.5 mM); the substrate for FXIIa (0.5 mM) and plasma kallikrein was S2302 (0.5 mM); the substrate for HLE was MeOSuc-Ala-Ala-Pro-Val-pNA (0.4 mM). There was good agreement upon comparison of the protein concentrations determined by amino acid analysis, Bradford analysis (Bradford, M. M. Anal. Biochem. 72:248-254 (1976) or active site titrations for trypsin, ecotin, FXa, FXIIa, plasma kallikrein, and HLE.
Therefore, apparent equilibrium dissociation values (Ki *) were determined using methods derived for tight-binding inhibitors (Morrison, J. F. Biochim. Biophys. Acta 185:269-286 [1969]), (Bieth, J. in Proteinase Inhibitors (Fritz, H., Tschesche, H., Greene, L. J. and Truscheit, E., Ed.) pp 463-469, Springer-Verlag, New York [1974]). Data were fit by nonlinear regression analysis to equation 1 and values for Ki * were determined. [formula] where α is the fractional activity (steady-state inhibited rate divided by the uninhibited rate), [Eo ] is the total enzyme concentration, and [Io ] is the total ecotin concentration. Since the inhibitor and substrate compete for the same site, the true Ki value is related to Ki^* by the expression Ki =Ki */(1+[S]/Km), where Km is the Michaelis constant for the substrate, and [S] is the substrate concentration.
a. […] Following a 1 hour incubation at room temperature to reach equilibration of the enzyme.cndot.inhibitor complex, 20 μl of 5 mM Spectrozyme fXa was added, and the steady-state rate of product formation measured by monitoring the change in absorbance at 405 nm. The Km for Spectrozyme fXa with FXa under these conditions was determined to be 0.23 mM by linear regression analysis of Lineweaver-Burke plots.

[3] = test system: HLE; settings: relative to α1-proteinase inhibitor with P1 Met, literature; cited from earlier work

Substance | koff (values in parenthesis) [1] [s⁻¹] | inhibition of FXa, in words [2] | decreased inhibition towards HLE [3]
M84A | 0.00066 | – | –
M84D | – | significant inhibition | –
M84E | 0.00057 | significant inhibition | –
α1-Proteinase inhibitor (Pittsburgh): naturally occuring mutant of the serpin α1-proteinase inhibitor which has Arg in the P1 position instead of Met | – | – | 10,000 fold
